Bounds are passed on as bounds.

For assay [1], the target named is T1, human Eg5 (monomeric construct Eg52-386) (Homo sapiens, UniProt P52732).
T1 construct: the basal ATPase activity was measured using 1-4 μM of Eg5 (2-386) for the above test; made in house
T1 sequence (P52732 2-386): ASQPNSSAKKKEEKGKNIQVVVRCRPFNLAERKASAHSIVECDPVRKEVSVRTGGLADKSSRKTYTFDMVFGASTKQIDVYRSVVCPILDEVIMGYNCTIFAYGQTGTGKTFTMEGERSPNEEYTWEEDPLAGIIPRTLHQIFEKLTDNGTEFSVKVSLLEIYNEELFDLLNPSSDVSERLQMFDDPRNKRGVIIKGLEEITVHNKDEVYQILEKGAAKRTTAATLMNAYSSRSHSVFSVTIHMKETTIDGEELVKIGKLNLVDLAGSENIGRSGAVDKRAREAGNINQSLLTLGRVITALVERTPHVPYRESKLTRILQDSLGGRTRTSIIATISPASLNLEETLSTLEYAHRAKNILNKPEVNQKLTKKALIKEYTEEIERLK
In words: In vitro inhibition of the ATPase activity of kinesin Eg5 (pyruvate kinase/lactate dehydrogenase coupled assay). Format: biochemical. Conditions: for % inhibition: in vitro ATPase activity of Eg5, inhibitor concentration not given; for IC50: in vitro inhibition of ATPase activity of Eg5. The method, then:
All the assays were carried out at ambient temperature using the TECAN 96-well Sunrise photometer with a final volume of 200-250 μl per well. The ATPase contents were measured using the pyruvate kinase/lactate dehydrogenase protocol in an A25A buffer (25 mM potassium ACES, pH 6.9, 2 mM magnesium acetate, 2 mM potassium EGTA, 0.1 mM potassium EDTA, 1 mM mercaptoethanol) . In the […] of MT (microtubules) stabilized with paclitaxel, 300 nM of Eg52-386 were used for the test and, in the absence of MT, the basal ATPase activity was measured using 1-4 μM of Eg5 (2-386) for the above test or the malachite green test. For optimal solubility of the inhibitor, the assays were carried out in the presence of up to 2.2% of DMSO. […] The data were analyzed using a Kaleidagraph 3.0 (Synergy Software) and Microsoft Excel, so as to obtain the IC50 values.
The IC50 values for the in vitro inhibition of the ATPase activity of the kinesin motor proteins are determined according to the method described in S. DeBonis et al. (2003) Biochemistry 42, 338-349. Monastrol was used as a positive control. When necessary, the concentrations of inhibitor were adjusted according to the initial IC50. Each concentration of inhibitor was measured one to three times and averaged data are indicated with the margins of error±the standard deviation.

Another assay has as its target T2, kinesin Eg5 (Homo sapiens, UniProt P52732).
T2 sequence (P52732 1-1056): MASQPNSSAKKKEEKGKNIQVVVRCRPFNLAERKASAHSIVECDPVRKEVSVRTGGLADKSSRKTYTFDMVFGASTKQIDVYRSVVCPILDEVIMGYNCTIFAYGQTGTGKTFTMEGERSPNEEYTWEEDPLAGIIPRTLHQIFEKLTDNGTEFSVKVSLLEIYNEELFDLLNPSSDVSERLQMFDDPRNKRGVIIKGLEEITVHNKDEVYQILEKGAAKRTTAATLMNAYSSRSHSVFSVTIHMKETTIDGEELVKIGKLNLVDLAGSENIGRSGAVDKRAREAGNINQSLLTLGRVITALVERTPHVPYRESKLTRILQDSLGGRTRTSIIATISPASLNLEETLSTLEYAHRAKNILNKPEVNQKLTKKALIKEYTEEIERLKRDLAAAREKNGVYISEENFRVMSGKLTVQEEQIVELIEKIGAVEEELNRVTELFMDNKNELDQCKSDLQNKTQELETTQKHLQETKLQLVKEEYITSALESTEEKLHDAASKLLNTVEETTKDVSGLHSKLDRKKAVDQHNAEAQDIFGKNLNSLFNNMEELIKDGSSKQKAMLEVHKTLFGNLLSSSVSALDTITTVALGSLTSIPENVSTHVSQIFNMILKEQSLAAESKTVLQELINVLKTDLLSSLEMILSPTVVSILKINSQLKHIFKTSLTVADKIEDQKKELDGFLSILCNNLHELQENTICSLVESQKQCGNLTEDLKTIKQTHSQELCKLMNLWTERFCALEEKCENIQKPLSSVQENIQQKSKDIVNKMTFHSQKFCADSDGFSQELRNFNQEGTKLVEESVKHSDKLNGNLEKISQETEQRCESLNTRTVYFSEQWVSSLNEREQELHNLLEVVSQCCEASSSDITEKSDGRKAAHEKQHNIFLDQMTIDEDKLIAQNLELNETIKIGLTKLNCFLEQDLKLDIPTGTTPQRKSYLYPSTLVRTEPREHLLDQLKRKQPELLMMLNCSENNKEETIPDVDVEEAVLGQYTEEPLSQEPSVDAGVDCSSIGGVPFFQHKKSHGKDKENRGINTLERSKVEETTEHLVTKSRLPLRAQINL
Conditions: prior-art values given in the background; read-out: antimitotic effect IC50; cited from earlier work.

For `CCOC(=O)C1=C(C)NC(=S)NC1c1ccccc1` (stereo not drawn) [Compound 1], in assay [1], the “% inhibition” value is reported as 80% and the concentration for half-maximal inhibition (IC50) is 9.5 µM.

`CCOC(=O)C1=C(C)NC(=S)NC1c1cccc(O)c1` (stereo not drawn) [Compound 2]: in assay [1], the “% inhibition” value is “≧90%^” and the IC50 was determined as 16 µM.

Regarding `CCOC(=O)C1=C(C)NC(=S)NC1c1ccc(O)cc1` (stereo not drawn) [Compound 3], in assay [1], the “% inhibition” value is recorded as 20% and the 50% inhibitory concentration (IC50) was 212 µM.

Consider `COc1ccc(C2NC(=S)NC(C)=C2C(=O)OCc2ccccc2)cc1` (stereo not drawn) [Compound 4], for which, in assay [1], the “% inhibition” value amounted to 40% and the 50% inhibitory concentration (IC50) stood at 6.6 µM.

For `CC1=C(C(=O)OCc2ccccc2)C(c2ccccc2)NC(=S)N1` (stereo not drawn) [Compound 5], in assay [1], the “% inhibition” value was 40% and the IC50 turned out to be 11.8 µM.

Regarding `CC1=C(C(=O)OCc2ccccc2)C(c2cccc(O)c2)NC(=S)N1` (stereo not drawn) [Compound 6], in assay [1], the “% inhibition” value is listed as “≧90%^” and the IC50 came to 10.3 µM.

For `CCOC(=O)C1=C(C)N(C)C(=S)NC1c1ccccc1` (stereo not drawn) [Compound 7], in assay [1], the “% inhibition” value is reported as 60% and the IC50 stood at 21 µM.

As for `CCOC(=O)C1=C(C)N(C)C(=S)NC1c1cccc(O)c1` (stereo not drawn) [Compound 8], in assay [1], the “% inhibition” value is recorded as “≧90%^” and the concentration for half-maximal inhibition (IC50) stood at 6.3 µM.

Consider `CC(=O)C1=C(C)NC(=S)NC1c1ccccc1` (stereo not drawn) [Compound 9], for which, in assay [1], the “% inhibition” value is listed as “≧90%^” and the IC50 was 24 µM.

With `CC(=O)C1=C(C)NC(=S)NC1c1ccc(O)cc1` (stereo not drawn) [Compound 10], in assay [1], the “% inhibition” value worked out at 80% and the IC50 worked out at 56 µM.

Consider `CC1=C(C(=O)c2ccccc2)C(c2ccc(O)cc2)NC(=S)N1` (stereo not drawn) [Compound 11], for which, in assay [1], the “% inhibition” value is given as “≧90%^” and the IC50 stood at 14.7 µM.

Turning to `CC(=O)C1=C(C)N(C)C(=S)NC1c1ccccc1` (stereo not drawn) [Compound 12], in assay [1], the “% inhibition” value stood at 40% and the IC50 stood at 80 µM.

As for `CC1=C(C(=O)c2ccccc2)C(c2ccccc2)NC(=S)N1C` (stereo not drawn) [Compound 13], in assay [1], the “% inhibition” value is “≧90%^” and the IC50 is 1.1 µM.

Take `CC1=C(C(=O)OCc2ccccc2)C(c2cccc(O)c2)NC(=S)N1C` (stereo not drawn) [Compound 14]: in assay [1], the “% inhibition” value is 48% and the IC50 turned out to be 9.8 µM.

For the molecule `CC(=O)C1=C(C)NC(=S)NC1c1cccc(O)c1` (stereo not drawn) [Compound 15], in assay [1], the “% inhibition” value is on record as “≧90%^” and the half-maximal inhibitory concentration (IC50) stood at 0.51 µM.

Turning to `CC(=O)C1=C(C)N(C)C(=S)NC1c1cccc(O)c1` (stereo not drawn) [Compound 16], in assay [1], the “% inhibition” value is recorded as 40% and the 50% inhibitory concentration (IC50) worked out at 133 µM.

For the molecule `CC1=C(C(=O)c2ccccc2)C(c2cccc(O)c2)NC(=S)N1` (stereo not drawn) [Compound 17], in assay [1], the “% inhibition” value is recorded as “≧90%^” and the IC50 worked out at 0.25 µM.

As for `CC1=C(C(=O)c2ccccc2)C(c2cccc(O)c2)NC(=S)N1C` (stereo not drawn) [Compound 18], the “% inhibition” value in assay [1] is recorded as “≧90%^”.

In the case of `CC1=C(C(=O)c2ccccc2)C(c2ccc(O)cc2)NC(=S)N1C` (stereo not drawn) [Compound 19], in assay [1], the “% inhibition” value came to 87% and the IC50 worked out at 24 µM.

For the molecule `CCOC(=O)C1=C(C)NC(=S)NC1c1cccc(Cl)c1` (stereo not drawn) [Compound 20], in assay [1], the “% inhibition” value came out at 60% and the IC50 came to 10 µM.

As to `CCOC(=O)C1=C(C)NC(=S)NC1c1cccc(OC)c1` (stereo not drawn) [Compound 21], in assay [1], the “% inhibition” value is given as 20% and the half-maximal inhibitory concentration (IC50) is 57 µM.

On to `CCOC(=O)C1=C(C)NC(=S)NC1c1ccccc1F` (stereo not drawn) [Compound 22], for which, in assay [1], the “% inhibition” value came out at 60% and the IC50 worked out at 20 µM.

On to `CCOC(=O)C1=C(C)NC(=S)NC1c1ccccc1Cl` (stereo not drawn) [Compound 24], for which, in assay [1], the “% inhibition” value was 60% and the IC50 worked out at 32 µM.

Regarding `CCOC(=O)C1=C(C)NC(=S)NC1c1cccc(F)c1` (stereo not drawn) [Compound 25], in assay [1], the “% inhibition” value was 60% and the half-maximal inhibitory concentration (IC50) stood at 14 µM.

Regarding `CC1=C(C(=O)c2ccccc2)C(c2ccccc2)NC(=O)N1C` (stereo not drawn) [Compound 26], in assay [1], the “% inhibition” value amounted to 84% and the IC50 stood at 5 µM.

As to `CC1=C(C(=O)c2ccccc2)C(c2cccc(O)c2)NC(=O)N1C` (stereo not drawn) [Compound 27], in assay [1], the “% inhibition” value is 85% and the IC50 is 0.8 µM.

In the case of `C=CCN1C(=S)NC(c2cccc(O)c2)C(C(=O)c2ccccc2)=C1C(F)(F)F` (stereo not drawn) [Compound 28], in assay [1], the “% inhibition” value is given as 70% and the IC50 is 17 µM.

For the molecule `CCOC(=O)C1=C(C(C)C)NC(=S)NC1c1cccc(O)c1` (stereo not drawn) [Compound 29], in assay [1], the “% inhibition” value was determined as 80% and the IC50 amounted to 8.5 µM.

On to `CCOC(=O)C1=C(CC)N(C)C(=S)NC1c1cccc(O)c1` (stereo not drawn) [Compound 30], for which, in assay [1], the “% inhibition” value is “≧90%^” and the IC50 worked out at 10 µM.

On to `CC1=C(C(=O)c2cccc(F)c2)C(c2cccc(O)c2)NC(=S)N1` (stereo not drawn) [Compound 31], for which, in assay [1], the “% inhibition” value stood at 87% and the IC50 turned out to be 0.82 µM.

On to `CC1=C(C(=O)c2cccc(Cl)c2)C(c2cccc(O)c2)NC(=S)N1` (stereo not drawn) [Compound 32], for which, in assay [1], the “% inhibition” value is “≧90%^” and the IC50 was 0.5 µM.

For the molecule `CC1=C(C(=O)c2cccc(I)c2)C(c2cccc(O)c2)NC(=S)N1` (stereo not drawn) [Compound 33], in assay [1], the “% inhibition” value was “≧90%^” and the IC50 came out at 0.5 µM.

In the case of `COc1cccc(C(=O)C2=C(C)NC(=S)NC2c2cccc(O)c2)c1` (stereo not drawn) [Compound 34], in assay [1], the “% inhibition” value is listed as “≧90%^” and the IC50 amounted to 1.1 µM.

Take `CCOC(=O)C1=C(C)NC(=S)NC1c1cccc(O)c1` (stereo not drawn) [Monastrol]: the IC50 on kinesin Eg5 is above 14 µM.

In general, % inhibition refers to how much of the control response was suppressed. The IC50 is the concentration that inhibits the measured activity by half.

The values above are taken from patent publication US20080145453A1, “Novel Dihydropyrimidine Derivatives And Their Use As Anti-Cancer Agents” (priority 2005, published 2008).
